Our source for the T/C values is PubChem BioAssay AID180 (DTP/NCI, 2004).

Values joined by “and” are separate entries in the source; they are usually repeats but may differ in a detail not shown here. Equal entries are not always repeated.

By T/C is commonly meant the result in the treated group divided by that in the control group, in per cent.

The test deals with BDF1 mice, Adenocarcinoma 755 s.c., tumor weight T/C. Briefly: NCI In Vivo Anticancer Drug Screen. Data for tumor model Adenocarcinoma 755 (subcutaneous) in B6D2F1 (BDF1) mice. As to conditions: endpoint: mean tumor weight, higher = larger tumour. The essentials: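 Readout: T/C, i.e. treated-group measurement over vehicle-control measurement. Endpoint is survival or tumor size in tumor-bearing mice given compound.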

The mark [1] stands for this setting: dose: 12.0 mg/kg/injection, schedule: Q01DX011 (ip), vehicle: methylcellulose (MC).
Setting [2] is: dose: 25.0 mg/kg/injection, schedule: Q01DX011 (ip), vehicle: methylcellulose (MC).
The mark [3] stands for this setting: dose: 50.0 mg/kg/injection, schedule: Q01DX011 (ip), vehicle: methylcellulose (MC).
[4] abbreviates: dose: 100.0 mg/kg/injection, schedule: Q01DX011 (ip), vehicle: methylcellulose (MC).

In the case of `CS(=O)(=O)OCC(O)C(O)COS(C)(=O)=O` (stereo not drawn), the T/C is 65 % of control (dose: 125.0 mg/kg/injection, schedule: Q01DX011 (ip), vehicle: carboxymethylcellulose (CMC)); 66 % of control (dose: 200.0 mg/kg/injection, schedule: Q01DX011 (ip), vehicle: saline); 20 % of control (dose: 250.0 mg/kg/injection, schedule: Q01DX011 (ip), vehicle: carboxymethylcellulose (CMC)); 6 % of control (dose: 500.0 mg/kg/injection, schedule: Q01DX011 (ip), vehicle: carboxymethylcellulose (CMC)); 17 % of control (dose: 800.0 mg/kg/injection, schedule: Q01DX011 (ip), vehicle: saline).

Regarding `CN1CC[C@]23c4c5ccc(O)c4O[C@H]2C(=O)CC[C@H]3[C@H]1C5`, the T/C was 53 % of control and 70 % of control (dose: 8.0 mg/kg/injection, schedule: Q01DX011 (ip), vehicle: methylcellulose (MC)); 50 % of control and 75 % of control (dose: 16.0 mg/kg/injection, schedule: Q01DX011 (ip), vehicle: methylcellulose (MC)); 61 % of control (dose: 32.0 mg/kg/injection, schedule: Q01DX011 (ip), vehicle: methylcellulose (MC)).

In the case of `CCC(C)C(N=C1N=CNC2=NC=NC12)C(=O)O` (stereo not drawn), the T/C is 108 % of control under setting [1], 106 % of control under setting [2], 80 % of control under setting [3] and 98 % of control under setting [4].

On to `CC(=O)Nc1c(Cl)c(Cl)c2c(c1Cl)C(=O)c1cc(Cl)ccc1-2`, for which the T/C under setting [3] is 57 % of control; the T/C (dose: 50.0 mg/kg/injection, schedule: Q01DX011 (ip), vehicle: other) is 100 % of control and 112 % of control; the T/C under setting [4] was 65 % of control; the T/C (dose: 100.0 mg/kg/injection, schedule: Q01DX011 (ip), vehicle: other) was 65 % of control; the T/C (dose: 400.0 mg/kg/injection, schedule: Q01DX011 (ip), vehicle: other) was 41 % of control and 64 % of control and 66 % of control; the T/C (dose: 800.0 mg/kg/injection, schedule: Q01DX011 (ip), vehicle: other) is 59 % of control.

As to `Nc1nc2n[nH]nc2c(=O)[nH]1`, the T/C was 80 % of control (dose: 11.18 mg/kg/injection, schedule: Q01DX011 (ip), vehicle: carboxymethylcellulose (CMC)); 62 % of control and 80 % of control (dose: 12.5 mg/kg/injection, schedule: Q01DX011 (ip), vehicle: other); 85 % of control (dose: 13.55 mg/kg/injection, schedule: Q01DX011 (ip), vehicle: carboxymethylcellulose (CMC)); 98 % of control (dose: 17.88 mg/kg/injection, schedule: Q01DX011 (ip), vehicle: carboxymethylcellulose (CMC)); 70 % of control and 76 % of control (dose: 22.35 mg/kg/injection, schedule: Q01DX011 (ip), vehicle: carboxymethylcellulose (CMC)); 80 % of control (dose: 27.1 mg/kg/injection, schedule: Q01DX011 (ip), vehicle: carboxymethylcellulose (CMC)). The T/C reads like this: (dose: 29.8 mg/kg/injection, schedule: Q01DX011 (ip), vehicle: carboxymethylcellulose (CMC)) 59 % of control; (dose: 37.5 mg/kg/injection, schedule: Q01DX011 (sc), vehicle: carboxymethylcellulose (CMC)) 11 % of control; (dose: 44.7 mg/kg/injection, schedule: Q01DX011 (ip), vehicle: carboxymethylcellulose (CMC)) 17 % of control and 33 % of control; (dose: 75.0 mg/kg/injection, schedule: Q01DX011 (sc), vehicle: carboxymethylcellulose (CMC)) 5 % of control; (dose: 89.4 mg/kg/injection, schedule: Q01DX011 (ip), vehicle: carboxymethylcellulose (CMC)) 4 % of control and 6 % of control; (dose: 108.4 mg/kg/injection, schedule: Q01DX011 (ip), vehicle: carboxymethylcellulose (CMC)) 3 % of control and 4 % of control.

For `OC1CC([CH2][Hg][I])OC([CH2][Hg][I])C1` (stereo not drawn), the T/C is 60 % of control (dose: 25.0 mg/kg/injection, schedule: Q01DX011 (ip), vehicle: carboxymethylcellulose (CMC)) and 30 % of control (dose: 50.0 mg/kg/injection, schedule: Q01DX011 (ip), vehicle: carboxymethylcellulose (CMC)).

As to `CC(C)CC(Nc1ncnc2nc[nH]c12)C(=O)O` (stereo not drawn), the T/C under setting [1] was 110 % of control, the T/C under setting [2] is 96 % of control, the T/C under setting [3] was 101 % of control and the T/C under setting [4] was 60 % of control.

Regarding `Cc1cc(N(CCCl)CCCl)ccc1N=Nc1ccccc1C(=O)O`, the T/C runs as follows: (dose: 0.44 mg/kg/injection, schedule: Q01DX011 (ip), vehicle: carboxymethylcellulose (CMC)) 115 % of control; (dose: 0.87 mg/kg/injection, schedule: Q01DX011 (ip), vehicle: carboxymethylcellulose (CMC)) 39 % of control; (dose: 1.75 mg/kg/injection, schedule: Q01DX011 (ip), vehicle: carboxymethylcellulose (CMC)) 53 % of control; (dose: 3.5 mg/kg/injection, schedule: Q01DX011 (ip), vehicle: carboxymethylcellulose (CMC)) 20 % of control.

Consider `CC1=CCN2CCC(O)C12` (stereo not drawn), for which the T/C is, setting by setting: (dose: 38.0 mg/kg/injection, schedule: Q01DX011 (ip), vehicle: carboxymethylcellulose (CMC)) 95 % of control; (dose: 150.0 mg/kg/injection, schedule: Q01DX011 (ip), vehicle: carboxymethylcellulose (CMC)) 75 % of control.

As to `O=C(NCCCCCCCCCCNC(=O)N1CC1)N1CC1`, the T/C was 57 % of control and 66 % of control (dose: 0.5 mg/kg/injection, schedule: Q01DX011 (ip), vehicle: carboxymethylcellulose (CMC)); 2 % of control and 20 % of control (dose: 1.0 mg/kg/injection, schedule: Q01DX011 (ip), vehicle: carboxymethylcellulose (CMC)).

For the compound `CC(C)Cn1cnc2c(SCc3ccc(Br)cc3)nc(N)nc21`, the T/C is 40 % of control under setting [3]; 4 % of control (dose: 150.0 mg/kg/injection, schedule: Q01DX011 (ip), vehicle: methylcellulose (MC)); 1 % of control (dose: 200.0 mg/kg/injection, schedule: Q01DX011 (ip), vehicle: methylcellulose (MC)); 2 % of control (dose: 400.0 mg/kg/injection, schedule: Q01DX011 (ip), vehicle: methylcellulose (MC)).

As for `Ic1ncnc2c1ncn2C1CCCS1` (stereo not drawn), the T/C by setting is: (dose: 75.0 mg/kg/injection, schedule: Q01DX011 (ip), vehicle: methylcellulose (MC)) 150 % of control; (dose: 225.0 mg/kg/injection, schedule: Q01DX011 (ip), vehicle: methylcellulose (MC)) 95 % of control.

`Cn1c(N)nc2nc[nH]c2c1=S`: the T/C was 114 % of control (dose: 4.0 mg/kg/injection, schedule: Q01DX011 (oral), vehicle: carboxymethylcellulose (CMC)); 91 % of control (dose: 4.0 mg/kg/injection, schedule: Q01DX011 (oral), vehicle: saline); 4 % of control (dose: 5.0 mg/kg/injection, schedule: Q01DX011 (ip), vehicle: methylcellulose (MC)); 5 % of control (dose: 6.0 mg/kg/injection, schedule: Q01DX011 (ip), vehicle: methylcellulose (MC)); 4 % of control (dose: 7.0 mg/kg/injection, schedule: Q01DX011 (ip), vehicle: methylcellulose (MC)); 112 % of control (dose: 8.0 mg/kg/injection, schedule: Q01DX011 (oral), vehicle: carboxymethylcellulose (CMC)). For the same compound, the T/C (dose: 8.0 mg/kg/injection, schedule: Q01DX011 (oral), vehicle: saline) is 92 % of control; the T/C (dose: 16.0 mg/kg/injection, schedule: Q01DX011 (oral), vehicle: carboxymethylcellulose (CMC)) is 119 % of control; the T/C (dose: 16.0 mg/kg/injection, schedule: Q01DX011 (oral), vehicle: saline) is 80 % of control; the T/C (dose: 32.0 mg/kg/injection, schedule: Q01DX011 (oral), vehicle: carboxymethylcellulose (CMC)) is 203 % of control; the T/C (dose: 32.0 mg/kg/injection, schedule: Q01DX011 (oral), vehicle: saline) is 86 % of control; the T/C (dose: 64.0 mg/kg/injection, schedule: Q01DX011 (oral), vehicle: carboxymethylcellulose (CMC)) was 151 % of control. The T/C is, setting by setting: (dose: 64.0 mg/kg/injection, schedule: Q01DX011 (oral), vehicle: saline) 120 % of control; (dose: 500.0 mg/kg/injection, schedule: Q01DX011 (oral), vehicle: carboxymethylcellulose (CMC)) 85 % of control; (dose: 750.0 mg/kg/injection, schedule: Q01DX011 (oral), vehicle: carboxymethylcellulose (CMC)) 90 % of control; (dose: 310.0 micrograms/kg/injection, schedule: Q01DX011 (ip), vehicle: methylcellulose (MC)) 32 % of control; (dose: 625.0 micrograms/kg/injection, schedule: Q01DX011 (ip), vehicle: methylcellulose (MC)) 64 % of control; (dose: 1000.0 micrograms/kg/injection, schedule: Q01DX011 (ip), vehicle: methylcellulose (MC)) 3 % of control. Further, the T/C (dose: 1250.0 micrograms/kg/injection, schedule: Q01DX011 (ip), vehicle: methylcellulose (MC)) was 18 % of control; the T/C (dose: 2000.0 micrograms/kg/injection, schedule: Q01DX011 (ip), vehicle: methylcellulose (MC)) was 3 % of control; the T/C (dose: 2500.0 micrograms/kg/injection, schedule: Q01DX011 (ip), vehicle: methylcellulose (MC)) is 4 % of control; the T/C (dose: 5000.0 micrograms/kg/injection, schedule: Q01DX011 (ip), vehicle: methylcellulose (MC)) was 4 % of control; the T/C (dose: 7500.0 micrograms/kg/injection, schedule: Q01DX011 (ip), vehicle: methylcellulose (MC)) was 2 % of control.
